Earlier results, collected in patent US7709469B2, “P2X7 receptor antagonists and methods of use” (Abbott Laboratories, priority 2005, dated 2010).

Key:
[1] = biological target: T1, P2X7 (Rattus norvegicus, UniProt Q64663); set-up: Rats with SCI were administered P2X7 receptor irreversible antagonists oATP and PPADS; host or cells: living rats (endogenous receptor); details: rats with SCI
T1 sequence (Q64663 1-595): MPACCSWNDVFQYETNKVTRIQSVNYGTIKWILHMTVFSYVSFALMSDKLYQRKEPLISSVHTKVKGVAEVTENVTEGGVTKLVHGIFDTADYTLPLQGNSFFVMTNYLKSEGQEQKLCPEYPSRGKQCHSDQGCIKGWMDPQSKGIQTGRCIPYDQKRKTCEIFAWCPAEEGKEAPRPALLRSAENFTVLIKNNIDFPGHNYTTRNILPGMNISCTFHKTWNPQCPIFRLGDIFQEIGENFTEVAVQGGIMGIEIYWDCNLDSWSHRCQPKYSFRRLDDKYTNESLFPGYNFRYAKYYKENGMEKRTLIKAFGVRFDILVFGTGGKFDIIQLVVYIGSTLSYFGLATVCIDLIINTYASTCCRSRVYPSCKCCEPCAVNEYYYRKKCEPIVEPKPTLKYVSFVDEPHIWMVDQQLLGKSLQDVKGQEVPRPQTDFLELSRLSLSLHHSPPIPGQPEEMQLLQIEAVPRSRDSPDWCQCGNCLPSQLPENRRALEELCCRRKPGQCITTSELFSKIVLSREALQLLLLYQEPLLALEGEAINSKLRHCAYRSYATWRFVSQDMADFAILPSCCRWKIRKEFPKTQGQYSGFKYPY

[2] = biological target: T1, P2X7; set-up: host or cells: living rats (endogenous receptor); details: inflamed rats

SMILES | histological injury and recovery of motor function after SCI [1] | antinociceptive properties [2]
Cc1nc(N=Nc2ccc(S(=O)(=O)O)cc2S(=O)(=O)O)c(COP(=O)(O)O)c(C=O)c1O [PPADS] | decrease of histological injury and improved recovery of motor function | 
Nc1ncnc2c1ncn2[C@@H](C=O)O[C@@H](C=O)COP(=O)(O)OP(=O)(O)OP(=O)(O)O [oATP, Oxidized ATP] | decrease of histological injury and improved recovery of motor function | possess peripherally mediated antinociceptive properties
